Measured values published in PMC3372625 (Journal of Controlled Release, 2012).

Columns and labels:
H9C2 cells [1] = test: Reactive oxygen species; format: cell-based; details: various concentrations of CoCl2; figure 2b
H9C2 cells [2] = test: Cell viability; format: cell-based; details: in the presence of CoCl2; figure 2c
cells = details: cited from earlier work

Row | Compound | generation of ROS (H9C2 cells [1]) | CoCl2 toxicity (cell viability) (H9C2 cells [2]) | cytotoxicity (cells)
1 | [Cl][Co][Cl] [CoCl2, cobalt chloride] | dependent on the concentration of CoCl2 up to 25 μmol | no artifact caused by CoCl2 toxicity | 
2 | Branched poly(ethylenimine) [PEI] |  |  | less than 10%
